Test results from the OligoGym collection.
HELM strings list units from the 5' end as sugar, base in round brackets, then linkage (d deoxyribose, r ribose, m 2'-O-methyl, p phosphodiester). Strings are as the collection lists them; they lack the last nucleoside at the 3' end of the tested compound. [moe] = 2'-O-(2-methoxyethyl) (MOE); [sp] = phosphorothioate linkage; [m5C] = 5-methylcytosine

Target: UBE3A-ATS
Test: mouse, dose not given
Conditions: ASO

Substance: RNA1{[moe]([m5C])[sp].[moe](A)p.[moe](G)p.[moe](T)p.[moe](A)p.d(T)[sp].d([m5C])[sp].d(T)[sp].d(T)[sp].d(A)[sp].d(A)[sp].d([m5C])[sp].d(T)[sp].d(G)[sp].d(G)[sp].[moe](T)p.[moe](G)p.[moe](A)[sp].[moe](A)}$$$$ (last 3' nucleoside missing)
- 3 h FOB score: 1 score 0-7

Substance: RNA1{[moe](G)[sp].[moe](T)p.[moe](G)p.[moe](A)p.[moe](G)[sp].d([m5C])[sp].d(T)[sp].d(A)[sp].d(T)[sp].d([m5C])[sp].d(T)[sp].d(G)[sp].d(T)[sp].[moe](A)p.[moe]([m5C])p.[moe](A)[sp].[moe](A)}$$$$ (last 3' nucleoside missing)
- 3 h FOB score: 1 score 0-7

Substance: RNA1{[moe](G)[sp].[moe](A)p.[moe](G)p.[moe]([m5C])p.d(T)[sp].d(A)[sp].d(T)[sp].d([m5C])[sp].d(T)[sp].d(G)[sp].d(T)[sp].d(A)[sp].d([m5C])[sp].d(A)[sp].[moe](A)p.[moe](A)p.[moe](A)p.[moe](T)[sp].[moe](G)}$$$$ (last 3' nucleoside missing)
- 3 h FOB score: 4.7 score 0-7

Substance: RNA1{[moe](G)[sp].[moe](T)p.[moe](A)p.[moe](T)p.[moe](A)p.d(T)[sp].d(T)[sp].d(G)[sp].d(T)[sp].d(A)[sp].d(G)[sp].d([m5C])[sp].d(T)[sp].d(T)[sp].d(T)[sp].[moe](T)p.[moe]([m5C])p.[moe](T)[sp].[moe](A)}$$$$ (last 3' nucleoside missing)
- 3 h FOB score: 6.2 score 0-7

Substance: RNA1{[moe](T)[sp].[moe](G)p.[moe](T)p.[moe]([m5C])p.[moe](T)p.d([m5C])[sp].d(T)[sp].d(A)[sp].d(A)[sp].d(T)[sp].d([m5C])[sp].d([m5C])[sp].d(T)[sp].d(A)[sp].d(T)[sp].[moe](T)p.[moe]([m5C])p.[moe]([m5C])[sp].[moe](A)}$$$$ (last 3' nucleoside missing)
- 3 h FOB score: 0 score 0-7

Substance: RNA1{[moe](A)[sp].[moe](G)p.[moe](A)p.[moe]([m5C])p.[moe](T)p.d(A)[sp].d(T)[sp].d([m5C])[sp].d([m5C])[sp].d(T)[sp].d(G)[sp].d(G)[sp].d(T)[sp].d(A)[sp].d(T)[sp].[moe](G)p.[moe](A)p.[moe]([m5C])[sp].[moe](T)}$$$$ (last 3' nucleoside missing)
- 3 h FOB score: 6 score 0-7

Substance: RNA1{[moe](A)[sp].[moe](A)p.[moe](G)p.[moe](T)p.[moe](A)p.d(T)[sp].d(A)[sp].d(G)[sp].d(A)[sp].d(T)[sp].d(G)[sp].d([m5C])[sp].d([m5C])[sp].d(T)[sp].d([m5C])[sp].[moe](T)p.[moe]([m5C])p.[moe]([m5C])[sp].[moe](T)}$$$$ (last 3' nucleoside missing)
- 3 h FOB score: 4 score 0-7

Substance: RNA1{[moe](G)[sp].[moe](T)p.[moe](G)p.[moe](G)p.[moe](T)p.d(T)[sp].d(T)[sp].d([m5C])[sp].d([m5C])[sp].d(A)[sp].d(G)[sp].d([m5C])[sp].d(A)[sp].d(G)[sp].d(G)[sp].[moe](G)p.[moe](T)p.[moe](G)[sp].[moe](T)}$$$$ (last 3' nucleoside missing)
- 3 h FOB score: 5.8 score 0-7

Substance: RNA1{[moe](G)[sp].[moe](A)p.[moe]([m5C])p.[moe](T)p.[moe](A)p.d(T)[sp].d([m5C])[sp].d(T)[sp].d([m5C])[sp].d(A)[sp].d(G)[sp].d([m5C])[sp].d(A)[sp].d([m5C])[sp].d(T)[sp].[moe](A)p.[moe](G)p.[moe](G)[sp].[moe](G)}$$$$ (last 3' nucleoside missing)
- 3 h FOB score: 2 score 0-7

Substance: RNA1{[moe](T)[sp].[moe]([m5C])p.[moe](A)p.[moe](G)p.[moe](T)p.d(T)[sp].d(A)[sp].d(G)[sp].d(T)[sp].d([m5C])[sp].d(A)[sp].d(G)[sp].d(G)[sp].d(T)[sp].d(T)[sp].[moe](A)p.[moe](G)p.[moe](G)[sp].[moe](G)}$$$$ (last 3' nucleoside missing)
- 3 h FOB score: 4.2 score 0-7
